This note sets out measurements from US5710174A, “Factor XIIIA inhibitor” (Zymo Genetics, Inc., priority 1995, dated 1998).

Common to all, as to type: biochemical
The target of assay [1] is T1, FXIIIa (Homo sapiens, UniProt P00488).
T1 sequence (P00488 39-732 limits assumed): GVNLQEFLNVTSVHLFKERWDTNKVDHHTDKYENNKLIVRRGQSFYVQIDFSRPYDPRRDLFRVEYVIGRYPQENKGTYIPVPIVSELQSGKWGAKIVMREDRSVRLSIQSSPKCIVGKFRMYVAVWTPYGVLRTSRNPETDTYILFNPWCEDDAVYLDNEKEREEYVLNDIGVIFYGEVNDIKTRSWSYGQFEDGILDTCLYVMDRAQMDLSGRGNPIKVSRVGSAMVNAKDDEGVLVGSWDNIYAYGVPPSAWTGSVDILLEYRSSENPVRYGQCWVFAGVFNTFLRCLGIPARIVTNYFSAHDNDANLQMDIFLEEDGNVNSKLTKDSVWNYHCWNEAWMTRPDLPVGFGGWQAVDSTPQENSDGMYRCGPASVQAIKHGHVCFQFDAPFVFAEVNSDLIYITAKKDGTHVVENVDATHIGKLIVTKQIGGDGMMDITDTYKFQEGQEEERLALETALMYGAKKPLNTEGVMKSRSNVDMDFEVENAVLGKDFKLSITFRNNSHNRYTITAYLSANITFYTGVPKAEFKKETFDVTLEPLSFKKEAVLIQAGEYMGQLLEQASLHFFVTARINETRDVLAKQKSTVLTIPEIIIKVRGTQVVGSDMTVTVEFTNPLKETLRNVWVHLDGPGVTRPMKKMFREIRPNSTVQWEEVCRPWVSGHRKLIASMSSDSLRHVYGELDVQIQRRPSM
Briefly: Primary FXIIIa screening assay (cross-linking of biotinylated fibrinogen and immobilized fibronectin).
Procedure: The primary FXIIIa screening assay used a 96-well high throughput assay format. This assay assesses test sample inhibition of FXIIIa catalyzed cross-linking of biotinylated fibrinogen and immobilized fibronectin.
Test samples (possibly containing FXIIIa inhibitors) were added to 96-well plates coated with fibronectin, followed by the addition of FXIIIa, as described in the primary FXIIIa screening assay, below. Biotinylated fibrinogen was added to the wells, and streptavidin-alkaline phosphatase was used to detect biotinylated fibrinogen that had been cross-linked to fibronectin.
Purified fibronectin was diluted to 1 μg/ml in 0.1M Na2 CO3, pH 9.7, and added to control and test assay wells of 96-well plates at 100 μl/well. All wells were incubated overnight at 4° C.
After incubation, the plate wells were washed twice with 200 μl/well of wash buffer per wash to remove all fibronectin not bound to the wells. The wash buffer contained 0.135M NaCl, 2.7 mM KCl, 25 mM Tris at about pH 7.4, and 0.1% Tween 20® (Sigma Chemical Co., St. Louis, Mo.; polyoxyethylenesorbitan monolaurate). The plate wells were then blocked with 200 μl/well blocking buffer and incubated for 1-2 h at 37° C. The blocking buffer contained 0.135M NaCl, 2.7 mM KCl, 25 mM Tris at about pH 7.4, 0.1% Tween 20®, and 0.5% BSA (bovine serum albumin, Sigma fraction V; Sigma). After incubation, the plates wells were again washed with 200 μl/well of wash buffer to remove excess blocking buffer.
Briefly, fibrinogen was dialyzed against 0.1M NaHCO3, pH 8.5 (coupling buffer) at a concentration of 1 mg/ml. BNHS was dissolved in dimethylformamide at a concentration of 1.7 mg/ml, and added to fibrinogen in coupling buffer at a ratio of 30 μl BNHS to 1 ml fibrinogen. The mixture was incubated with rocking for 4 h at room temperature, dialyzed against PBS, and stored in aliquots at -80° C.
Biotinylated fibrinogen (40 μl of 20 μg/ml solution) was added to each plate well. Except in control wells (which received 10 μl of 10% DMSO alone), 10 μl of each of the 11,198 crude extracts in 10% DMSO were added to duplicate wells after the addition of biotinylated fibrinogen, resulting in a 1% final assay concentration of DMSO.
FXIIIa (recombinant human FXIIIa2 (ZymoGenetics), as described in European Patent No. 0 268 772, granted Apr. 26, 1995, and incorporated herein by reference) was diluted to 100 μg/ml in a solution of 50 mM Tris, 5 mM CaCl2 at pH 7.4 containing 1 unit/ml thrombin (bovine; Enzyme Research Labs) and incubated for 20 min at 37° C. FXIIIa then was diluted to 1 μg/ml in a cross-linking buffer consisting of the blocking buffer described above plus 20 mM CaCl2 and 75 ng/ml D-phenylalanyl-L-prolyl-L-arginine chloromethyl ketone (PPACK; Calbiochem, La Jolla, Calif.). Fifty microliters of FXIIIa in cross-linking buffer was added to each test and control well. All wells then were incubated for about 10 min at 37° C.
After incubation, the wells were washed twice with 200 μl/well of wash buffer to remove all biotinylated fibrinogen that was not cross-linked to fibronectin.

Assay [2] concerns the target T2, tissue transglutaminase (tTG) (Cavia cutleri, UniProt P08587).
T2 construct: purchased Sigma
T2 sequence (P08587 1-690): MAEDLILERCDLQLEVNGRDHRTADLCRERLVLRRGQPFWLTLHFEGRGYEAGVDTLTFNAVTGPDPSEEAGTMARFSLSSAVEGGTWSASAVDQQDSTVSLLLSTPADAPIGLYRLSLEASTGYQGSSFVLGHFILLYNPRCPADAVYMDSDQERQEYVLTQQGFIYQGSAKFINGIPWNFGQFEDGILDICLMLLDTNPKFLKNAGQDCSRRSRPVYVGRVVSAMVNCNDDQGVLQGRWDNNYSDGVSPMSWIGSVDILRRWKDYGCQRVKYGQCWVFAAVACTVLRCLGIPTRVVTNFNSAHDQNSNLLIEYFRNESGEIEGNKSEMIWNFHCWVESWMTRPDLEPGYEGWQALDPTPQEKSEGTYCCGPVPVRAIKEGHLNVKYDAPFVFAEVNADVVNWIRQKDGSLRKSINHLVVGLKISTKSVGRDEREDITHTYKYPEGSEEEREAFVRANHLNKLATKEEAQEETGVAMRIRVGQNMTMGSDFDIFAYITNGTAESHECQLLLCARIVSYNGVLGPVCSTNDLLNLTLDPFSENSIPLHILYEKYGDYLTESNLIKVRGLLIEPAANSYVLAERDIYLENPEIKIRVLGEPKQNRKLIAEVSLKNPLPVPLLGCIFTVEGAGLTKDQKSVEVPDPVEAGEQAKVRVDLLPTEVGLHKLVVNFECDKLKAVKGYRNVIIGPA
Kind of assay: tTG screening assay. An excerpt: Because FXIII is a member of the tissue transglutaminase (tTG) family, all potential FXIIIa inhibitors identified in the primary FXIIIa screening assay were further screened for tTG (non-FXIII-specific) inhibitory activity. The tTG screening assay was identical to the primary FXIIIa screening assay, except that tTG (Sigma) was used instead of FXIIIa and no thrombin or PPACK was used.
The determination of IC50 values was done the same as in the primary FXIIIa screening assay, except that purified compounds were used at varying concentrations (instead of crude culture extracts). The IC50 values allow one to make comparisons of one compound to another.

Assay [3] addresses T3, papain (Carica papaya, UniProt P00784).
T3 construct: purchased Boehringer Mannheim
T3 sequence (P00784 134-345): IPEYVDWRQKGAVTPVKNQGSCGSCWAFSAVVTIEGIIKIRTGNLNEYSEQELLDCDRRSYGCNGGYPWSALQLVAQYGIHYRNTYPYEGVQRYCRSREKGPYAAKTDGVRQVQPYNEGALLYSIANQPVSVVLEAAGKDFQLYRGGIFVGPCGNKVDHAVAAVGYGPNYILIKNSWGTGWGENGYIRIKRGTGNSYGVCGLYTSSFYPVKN
Briefly: Papain inhibition assay. Particulars: for Papain inhibition (result in words, IC50 table): 100 μM to 10 nM, 30 min at 37° C. As for the experimental part: For the papain inhibition assay, a buffer containing 0.1M NaPO4 and 2.5 mM EDTA at about pH 7.0 was used. An Azocoll™ solution was prepared by adding 5 mg Azocoll™ (Calbiochem; an insoluble, powdered cowhide to which a bright red dye is attached (azo-dye-bound collagen)) to the buffer while stirring. The Azocoll was prewarmed to about 37° C. 10 μl of 0.1M L-cysteine, 10 μl of 50 μg/ml papain (Boehringer Mannheim), 0.5 ml of Azocoll solution, and 50 μl of one of a series of concentrations of ZG-1400a, iodoacetamide, iodoacetic acid, cerulenin, or 50 μl of the DMSO or ethanol negative controls were added to duplicate 13×75 mm glass tubes. The ZG-1400a, iodoacetamide, and iodoacetic acid were individually prepared in 10% DMSO and tested using half-log dilutions, starting at a final assay concentration of 100 μM and diluting to 10 nM. Cerulenin was prepared in 10% ethanol and tested using half-log dilutions, starting at a final assay concentration of 100 μM and diluting to 10 nM. A negative (no inhibition) control for ZG-1400a, iodoacetamide and iodoacetic acid was 50 μl of 10% DMSO to give a final assay concentration of 1% DMSO in each control tube. A negative control for cerulenin was 50 μl of 10% ethanol to give a final assay concentration of 1% ethanol in each control tube. The test and control tubes then were incubated for 30 min at 37° C. in an agitated water bath.
After incubation, all of the tubes were centrifuged at 2000 RPM for 5 min. The supernatant was removed and its absorbance was read at 520 nm on a Beckman DU640 spectrophotometer to determine the amount of papain inhibition.

Where [4] appears, read: purified compound, read-out: IC50 FXIIIa Primary Screen.
The mark [5] stands for this setting: purified compound, read-out: IC50 tTG Screen.

SMILES strings stand for the structures. Where two headings read alike, the source gives them in different places.

What is called IC50 is the concentration at which inhibition is half-maximal.

With `NC(=O)CI` [Iodoacetamide, iodoacetamide], the half-inhibitory concentration (IC50) was found to be 320 µM in assay [1], 10 µM in assay [2] and 0.01 µM in assay [3]. For the same compound, the “Papain inhibition (result in words, IC50 table)” value (“Papain inhibition” for short) in assay [3] is recorded as “did cause inhibition”.

On to `C[C@@H]1CCC/C=C\C(=O)Cc2cc(O)cc(O)c2C(=O)O1` [ZG-1400, R(-) enantiomer of cis-resorcylide], for which, in assay [1] (0.01X concentration), the “inhibition of FXIIIa” value is “about 65%”. The results for the IC50 in assay [1] (setting [4]) and in assay [2] (setting [5]) were 5.7 µM and 3.1 µM, respectively. The “inhibition of tTG” value in assay [2] (0.01X concentration) is listed as “about 95%”; in assay [2] (0.1X concentration) it was “about 70%”. Moreover, the “Papain inhibition” value is “did not inhibit papain activity” in assay [3] (listed as ZG-1400a) and “No inhibition” in assay [3] (listed as ZG-1440).

`CC=CCC=CCCC(=O)C1OC1C(N)=O` (stereo not drawn) [Cerulenin, 2,3-epoxy-4-oxo-7,10-dodecadienamide]: the concentration for half-maximal inhibition (IC50) in assay [1] (setting [4]) amounted to 29 µM; in assay [2] (setting [5]), 25 µM. The “Papain inhibition” value in assay [3] is “No inhibition”; in assay [3] (listed as cerulenin) it was “did not inhibit papain activity”.
